These are literature values, as cited in patent US20220347065A1, “ANTIPERSPIRANT EMULSION” (Conopco, Inc., d/b/a UNILEVER, priority 2019, published 2022).

The test system of this series is Staphylococcus epidermidis. The following applies: 80% or greater reduction in growth, 16 to 24 hours at 37° C.
Consider `CCO` [ethanol], for which the minimal inhibitory concentration (MIC) entry was “greater than 1 mg·ml^−1”.

Consider `CC(C)=CCCC(C)=CCCC(C)=CCO` [farnesol, 3,7,11-trimethyldodeca-2,6,10-trienol], for which the MIC result is listed as “ca. 25 μg·ml^−1”. As to `Oc1cc(Cl)ccc1Oc1ccc(Cl)cc1Cl` [triclosan, 2′,4,4′-trichloro,2-hydroxy-diphenyl ether], the MIC was 0.01 to 10 µg/mL.

For orientation: MIC means the lowest concentration found to suppress growth.
